Assay results reported in patent US6716411B2, “Method for finding nucleotide synthesis inhibitors having fewer side effects” (Aventis Pharma Deustschland GmbH, priority 1999, dated 2004).

Legend:
Assay type in all cases: in vivo
[1] = test system: adjuvant-induced arthritis; test: Adjuvant-induced arthritis model, colestyramine 4 hours after compound 1 (Example 3); details: for Increase in body weight / Reduction in arthritis score / Reduction in paw swelling / Surviving animals: orally
Description: Example 3 illustrates an experiment to determine whether the action of the minimally effective dose of compound 1 is reduced by administration of colestyramine at a time interval of 4 hours. This was investigated in the adjuvant-induced arthritis model. The model was carried out according to Example 1. Compound 1 was administered orally in 1% CMC daily from the start to the end of the investigation in a dose of 2.5 mg/kg/day. Colestyramine was likewise administered orally in 1% CMC 4 hours after the administration of compound 1. The corresponding control groups received equal volumes of a 1% CMC at the corresponding times.
In Example 3, we investigated whether relatively constant blood levels existing over a fairly long time were responsible for the desired effects of compound 1 on the immune system, or whether blood levels occurring for a short time (peak blood levels) of compound 1 caused this effect.
For this, compound 1 was administered orally once daily at the lowest efficacious dose of 2.5 mg/kg/day (see Example 1). In the corresponding comparison groups, colestyramine was administered 4 hours after administration of compound 1 in order to lower the blood levels of compound 1 in an accelerated manner after the absorption phase had taken place. By means of this, the action of blood levels of compound 1 existing for different lengths of time on the immunologically related pathological processes in adjuvant-induced arthritis in the rat was investigated.

[2] = Blood plasma level of compound 1 in the rat with and without colestyramine (HPLC-MS/MS); details: for half-life: male, Lewis, rat, plasma
Description: A selective HPLC-MS/MS method was used for the detection of compound 1. The quantitative determination of compound 1 from the blood plasma was carried out as follows:
A solution of an internal standard, then 0.1 M NaOH solution and 1 ml of diethyl ether were added. The mixture was vigorously shaken and the organic phase was discarded. 0.5 N HCl solution was added to the aqueous phase, and the analyte and the internal standard were extracted with 1 ml of diethyl ether. The organic phase was evaporated and taken up in a 1:1 mixture of acetonitrile and water. 10 μl of this solution was injected into an HPLC unit.
The HPLC unit contained a Lichrospher C-18HD column. Using a flow rate of 1 ml/min, the analyte and the internal standard were eluted using the eluent combination acetonitrile+(ammonium acetate solution [10 mmolar]), 67+33, and then selectively detected by mass spectroscopy (LC-MS/MS analysis). During the analysis of the blood plasma samples, calibration samples were taken.
In order to test foreign substances in identical metabolic situations, compound 1 was given only to animals with adjuvant arthritis. The arthritis was induced according to Example 1. The animal weight was on average 210 g. Each group consisted of 6 male Lewis rats. Blood samples were obtained from the tail.
The influence on the blood plasma level of compound 1 was investigated by means of colestyramine. […] During combination therapy with colestyramine, 1000 mg/kg of colestyramine was administered 4 hours after administration of the compound 1. Control animals received 1% CMC at the appropriate times without any active compound. The influence on the pharmacokinetics of compound 1 by colestyramine was investigated both after single administration and after chronic administration of compound 1 with or without colestyramine. Blood samples were obtained 2, 4, 6, 8, 24 and 48 hours after the last administration of compound 1.
The term “area under the curve” (AUC) is understood as meaning the area under the concentration level of a pharmaceutical substance plotted as a function of time. The AUC reflects the extent to which an organism is exposed to a substance. The term “chronic administration” is understood as meaning an administration of the compound 1 over a period of time which at least leads to constant blood levels of the compound 1. These constant blood levels, referred to as the steady state, are achieved after approximately 4 to 5 half-lives of regular taking.

pemphigus vulgaris = test: Observation of leflunomide treatment in humans; details: rheumatoid arthritis patients treated with leflunomide
Description: This diarrhea adversely affected the quality of life of the patient. Because of the problems caused by this side effect, an attempt was made, after more than two years' therapy with a constant dose of 20 mg of leflunomide per day, to end the therapy.
This observation was surprising, as the active metabolite of leflunomide, compound 1, has a half-life of approximately 14 days in humans. Furthermore, in this patient the blood levels of the active metabolite of leflunomide were repeatedly determined in the relatively high range between 70 mg/l and 85 mg/l.

[3] = test system: adjuvant-induced arthritis; test: Adjuvant-induced arthritis model, dose-response relationship (Example 1); details: for Increase in body weight / Reduction in arthritis score / Reduction in paw swelling / Surviving animals: day 21
Description: The dose-response relationship of N-(4-trifluoromethylphenyl)-2-cyano-3-hyroxycrotonamide, hereafter referred to as compound 1, was drawn up in the adjuvant-induced arthritis model (method of Pearson C. M. and Wood F. D.; Arth. Rheum. 2: 44 (1959), and Taurog J. D., Argentieri D. C. et al., Meth. Enzymol. 162: 339 (1988)). The swelling of the paws, the formation of generalized symptoms of arthritis, know as the score index, the increase in the body weight during the experiment, and the survival of the animals were determined.
Compound 1 was administered orally from the start of the experiment onwards up to the end on day 21 in a 1% strength carboxymethlcellulose solution, (CMC). The control groups received corresponding amounts of 1% CMC without the active compound.
Six male Lewis rats having a body weight of approximately 210 g were employed in each experimental group.
Negative numbers indicate the worsening of the respective measurement parameter.
In the adjuvant-induced arthritis model in the rat, autoimmune reactions are observed which correspond to the autoimmune diseases of the rheumatic type in humans.

[4] = 2.5 mg/kg/day of compound 1 alone
[5] = 2.5 mg/kg/day of compound 1 and 1000 mg/kg/day of cholestyramine 4 hours later
[6] = chronic administration, 2.5 mg/kg of compound 1
[7] = chronic administration, 2.5 mg/kg of compound 1 and 1000 mg/kg of colestyramine 4 hours later
[8] = single administration, 2.5 mg/kg of compound 1
[9] = single administration, 2.5 mg/kg of compound 1 and 1000 mg/kg of colestyramine 4 hours later

For `C/C(O)=C(\C#N)C(=O)Nc1ccc(C(F)(F)F)cc1` [compound 1, N-(4-trifluoromethylphenyl)-2-cyano-3-hydroxycrotonamide], the “desired action on adjuvant-induced arthritis with versus without colestyramine 4 hours after compound 1” value ([1]; 2.5 mg/kg/day of compound 1) was “No difference was seen”, the “Increase in body weight” value [1, 4] was 20% and the “Reduction in arthritis score” value [1, 4] was 70%. The “Reduction in paw swelling” value [1, 4] was 78%, the Surviving animals [1, 4] was 100% and the “Increase in body weight” value [1, 5] was 20%. The “Reduction in arthritis score” value [1, 5] was 81%, the “Reduction in paw swelling” value [1, 5] was 86% and the Surviving animals [1, 5] was 100%. The “Area under the curve 0-48 hours” value [2, 6] was 63.58 μg/ml × hr, the “Maximum blood plasma level” value [2, 6] was 5.73 µg/mL and the “Area under the curve 0-48 hours” value [2, 7] was 37.81 μg/ml × hr. For the same molecule, the “Maximum blood plasma level” value [2, 7] was 4.66 µg/mL, the half-life ([2]; oral, 2.5 mg/kg, chronic administration, 2.5 mg/kg of compound 1) was 3.45 h and the half-life ([2]; oral, 2.5 mg/kg, single administration, 2.5 mg/kg of compound 1, rats with adjuvant arthritis) was 3.85 h. The half-life ([2]; oral, chronic administration, 2.5 mg/kg of compound 1 and 1000 mg/kg of colestyramine 4 hours later) was 3.47 h, the half-life ([2]; oral, single administration, 2.5 mg/kg of compound 1 and 1000 mg/kg of colestyramine 4 hours later) was 3.32 h and the half-life ([2]; po, 2.5 mg/kg/day, in rats, approximately, orally administered) was 4 to 8 h. For the same molecule, the “AUC reduced by administration of colestyramine” value ([2]; multiple administration) was 40%, the “AUC reduced by administration of colestyramine” value ([2]; single administration) was 30% and the “Area under the curve 0-48 hours” value [2, 8] was 141.69 μg/ml × hr. For the same molecule, the “Maximum blood plasma level” value [2, 8] was 10.15 µg/mL, the “Area under the curve 0-48 hours” value [2, 9] was 99.90 μg/ml × hr and the “Maximum blood plasma level” value [2, 9] was 9.62 µg/mL. For the same molecule, the “blood levels of the compound 1” value (pemphigus vulgaris) was “over 32 mg/l”, the therapeutic action ([3]; 1 mg/kg/day) was “an action could no longer be determined” and the “Increase in body weight” value ([3]; 1 mg/kg/day orally) was 10%. For the same molecule, the “Reduction in arthritis score” value ([3]; 1 mg/kg/day orally) was −11%, the “Reduction in paw swelling” value ([3]; 1 mg/kg/day orally) was −9% and the Surviving animals ([3]; 1 mg/kg/day orally) was 100%. The “Increase in body weight” value ([3]; 2.5 mg/kg/day orally) was 20%, the “Reduction in arthritis score” value ([3]; 2.5 mg/kg/day orally) was 70% and the “Reduction in paw swelling” value ([3]; 2.5 mg/kg/day orally) was 78%. The Surviving animals ([3]; 2.5 mg/kg/day orally) was 100%, the “Increase in body weight” value ([3]; 5 mg/kg/day orally) was 37% and the “Reduction in arthritis score” value ([3]; 5 mg/kg/day orally) was 83%. The “Reduction in paw swelling” value ([3]; 5 mg/kg/day orally) was 96%, the “Increase in body weight” value ([3]; 7.5 mg/kg/day orally) was 25% and the “Reduction in arthritis score” value ([3]; 7.5 mg/kg/day orally) was 87%. For the same molecule, the “Reduction in paw swelling” value ([3]; 7.5 mg/kg/day orally) was 105%, the “Increase in body weight” value ([3]; 10 mg/kg/day orally) was 11% and the “Reduction in arthritis score” value ([3]; 10 mg/kg/day orally) was 84%. The “Reduction in paw swelling” value ([3]; 10 mg/kg/day orally) was 96%, the “Increase in body weight” value ([3]; 15 mg/kg/day orally) was 8% and the “Reduction in arthritis score” value ([3]; 15 mg/kg/day orally) was 91%. For the same molecule, the “Reduction in paw swelling” value ([3]; 15 mg/kg/day orally) was 106%, the “Increase in body weight” value ([3]; 25 mg/kg/day orally) was −2% and the “Reduction in arthritis score” value ([3]; 25 mg/kg/day orally) was 96%. For the same molecule, the “Reduction in paw swelling” value ([3]; 25 mg/kg/day orally) was 114% and the lowest efficacious dose ([3]; orally once daily, adjuvant-induced arthritis, rat) was 2.5 mg/kg/day.
